How the values were obtained:
Assay in all cases: Biological Example 3 glasshouse assay, post-emergence, various adjuvant systems
Format in all cases: in vivo
Eleusine indica (ELEIN) = conditions: 8 g/ha; for percentage control of Eleusine indica: adjuvant 0.5% v/v TEHP + 1.0% v/v AMS + 12.5% v/v IPA; for percentage control of (phytotoxicity on) Eleusine indica (ELEIN): adjuvant 0.5% v/v Hexamoll DINCH + 1.0% v/v AMS + 12.5% v/v IPA
Description: (§1) Post-emergence foliar spray application, 200 L/ha, usually one or two replicates for the weeds (depending on application rate), and two replicates for soybean.
(§2) Standard warm conditions (tropical), in glasshouse. Specifically, the glasshouse bay conditions are 24° C./18° C. day/night; 16/8 hours light/dark; 65% humidity.
(§3) The herbicidal application takes place at the following growth stages for plants which include inter alia one or more of the following plants (usually the herbicidal application takes place on at least the following plants: DIGSA, ELEIN, SETFA, ZEAMX, GLXMA Nikko, and GLXMA TMG133, and often also either BRADC or BRAPP):
Eleusine indica (ELEIN)—growth stage 12 or 13
(§4) Each test compound is applied with one of the following adjuvant systems (all percentages are final concentrations in the aqueous spray mixture):
(§5) Adjuvant system 2: 0.5% v/v Hexamoll™ DINCH**, 1.0% v/v AMS (ammonium sulphate) and 12.5% v/v IPA (isopropyl alcohol).
(§6) Adjuvant system 3: 0.5% v/v tris-(2-ethylhexyl)phosphate (“TEHP”), 1.0% v/v AMS (ammonium sulphate) and 12.5% v/v IPA (isopropyl alcohol).
(§7) Seeds of the weed (including volunteer) plants, typically including inter alia Digitaria sanguinalis (DIGSA), Eleusine indica (ELEIN), Setaria faberi (SETFA), Zea mays (ZEAMX, corn), and sometimes also [either Brachiaria decumbens (BRADC) or Brachiaria platyphylla (BRAPP)], are sown in seed trays (troughs) containing clay loam soil (pH 7.0, 2.2% organic matter, “Trough Mix A”); and soybean seed is sown in pots containing the same soil with 3 soybean seedlings per pot. The plants are sprayed with the test herbicide when they reach the growth stages mentioned above.
(§8) The test herbicidal solutions are prepared by mixing the appropriate aliquots of the test substance(s) and one of the adjuvant systems indicated above *** in deionised water to give the desired treatment concentration.
(§9) The herbicidal application is made as a foliar spray, using a tracksprayer. Following the herbicidal application, the plants are watered twice per day for the duration of the test.
(§10) A visual assessment of the % herbicidal damage is made 7 and 14 Days After herbicide Application (DAA) (or, in a minority of cases, 7 and 15 DAA), and the results are recorded as % visual herbicidal damage where 0%=no damage to plants and 100%=plant totally killed.
(§11) Compounds A2 and A7 were tested using the 0.5% v/v Hexamoll™ DINCH™+1.0% v/v AMS+12.5% v/v IPA adjuvant system. Compounds A11, A12, A14, A20 and A21 were tested using the 0.5% v/v tris-(2-ethylhexyl)phosphate (“TEHP”)+1.0% v/v AMS+12.5% v/v IPA adjuvant system.
(§12) The percentages of herbicidal damage/plant control, at 14 Days After herbicide Application (DAA) (or, in some cases, at 15 DAA), for the Compounds tested and for some of the plants tested, were in the following percentage ranges. For the tested compounds, the phytotoxicity results shown herein are generally the average of 2 or 3 repetitions (for the grassy weeds including corn) or the average of 2 repetitions (for soybean for most of the tested compounds). However, for Compound A2 on soybean there was 1 repetion only.

Setaria faberi (SETFA) = conditions: 8 g/ha; for percentage control of Setaria faberi: adjuvant 0.5% v/v TEHP + 1.0% v/v AMS + 12.5% v/v IPA; for percentage control of (phytotoxicity on) Setaria faberi (SETFA): adjuvant 0.5% v/v Hexamoll DINCH + 1.0% v/v AMS + 12.5% v/v IPA
Description: as §1, §2, §3
Setaria faberi (SETFA)—growth stage 12 or 13
as §4, §5, §6, §7, §8, §9, §10, §11, §12

[1] = tested on: Digitaria sanguinalis (DIGSA); conditions: 8 g/ha; for percentage control of Digitaria sanguinalis: adjuvant 0.5% v/v TEHP + 1.0% v/v AMS + 12.5% v/v IPA; for percentage control of (phytotoxicity on) Digitaria sanguinalis (DIGSA): adjuvant 0.5% v/v Hexamoll DINCH + 1.0% v/v AMS + 12.5% v/v IPA
Description: as §1, §2, §3
Digitaria sanguinalis (DIGSA)—growth stage 12 or 13
as §4, §5, §6, §7, §8, §9, §10, §11, §12

[2] = tested on: Glycine max (GLXMA, soybean) cultivar TMG133 (Roundup Ready glyphosate-tolerant); conditions: crop
Description: as §1, §2, §3
Glycine max (GLXMA, soybean) cultivar “TMG133”—which is Roundup Ready™ glyphosate-tolerant soybean cultivar TMG133 (typically available from Monsanto in Brazil)—growth stage: 1st trifoliate.
as §4, §5, §6, §7, §8, §9, §10, §11, §12
Glycine max (GLXMA, soybean) cultivar “TMG133” is Roundup Ready™ glyphosate-tolerant soybean cultivar TMG133, and is typically available from Monsanto in Brazil.

[3] = tested on: Zea mays (ZEAMX, maize/corn) cultivar Garland; conditions: 8 g/ha; for percentage control of Zea mays: adjuvant 0.5% v/v TEHP + 1.0% v/v AMS + 12.5% v/v IPA; for percentage control of (phytotoxicity on) Zea mays (ZEAMX, maize, corn): adjuvant 0.5% v/v Hexamoll DINCH + 1.0% v/v AMS + 12.5% v/v IPA
Description: as §1, §2, §3
Zea mays (ZEAMX, maize/corn, e.g. can occur as volunteer corn) cultivar “Garland”—growth stage 12 or 13
as §4, §5, §6, §7, §8, §9, §10, §11, §12
Zea mays (ZEAMX, maize, corn) is often present as a “volunteer” weed (“volunteer” corn) in fields where it was planted as a crop in preceding growing season(s) and where the present field crop is not corn.

[4] = tested on: Brachiaria decumbens (BRADC); conditions: 8 g/ha; for percentage control of (phytotoxicity on) Brachiaria decumbens (BRADC): adjuvant 0.5% v/v Hexamoll DINCH + 1.0% v/v AMS + 12.5% v/v IPA; for percentage control of Brachiaria decumbens (BRADC): adjuvant 0.5% v/v TEHP + 1.0% v/v AMS + 12.5% v/v IPA
Description: as §1, §2, §3
Brachiaria decumbens (BRADC)—growth stage (GS) 12 or 13 (or GS 12)—or, if BRADC is not used, then sometimes Brachiaria platyphylla (BRAPP)—growth stage 12 or 13
as §4, §5, §6, §7, §8, §9, §10
Compounds A2 and A7 were tested using the 0.5% v/v Hexamoll™ DINCH™+1.0% v/v AMS+12.5% v/v IPA adjuvant system. Compounds A11, A12, A14, A20 and A21 were tested using the 0.5% v/v tris-(2-ethylhexyl)phosphate (“TEHP”)+1.0% v/v AMS+12.5% v/v IPA adjuvant system. […]

[5] = 120 g/ha, 14 or 15 DAA, adjuvant 0.5% v/v TEHP + 1.0% v/v AMS + 12.5% v/v IPA
[6] = 120 g/ha, 14 DAA, adjuvant 0.5% v/v Hexamoll DINCH + 1.0% v/v AMS + 12.5% v/v IPA

C#CCC1CC(=O)C(c2c(F)cc(-c3ccc(F)cc3F)cc2OC)C1=O (stereo not drawn) [Compound A21]
percentage control of Eleusine indica (Eleusine indica (ELEIN); 14 or 15 DAA): 25% | percentage control of Setaria faberi (Setaria faberi (SETFA); 14 or 15 DAA): 85% | percentage control of Digitaria sanguinalis ([1]; 14 or 15 DAA): 45% | percentage phytotoxicity on Glycine max cultivar TMG133 [2, 5]: 5% | percentage control of Zea mays ([3]; 14 or 15 DAA): 95%

C#CCC1CC(=O)C(c2c(F)cc(-c3ccc(Cl)cc3)cc2OC)C1=O (stereo not drawn) [Compound A14]
percentage control of Eleusine indica (Eleusine indica (ELEIN); 15 DAA): 20% | percentage control of Setaria faberi (Setaria faberi (SETFA); 15 DAA): 95% | percentage control of Digitaria sanguinalis ([1]; 15 DAA): 85% | percentage phytotoxicity on Glycine max cultivar TMG133 ([2]; 120 g/ha, 15 DAA, adjuvant 0.5% v/v TEHP + 1.0% v/v AMS + 12.5% v/v IPA): 5% | percentage control of Zea mays ([3]; 15 DAA): 90%

C#CCC1CC(=O)C(c2c(C)cc(-c3ccc(Cl)cn3)cc2C)C1=O (stereo not drawn) [Compound A2]
percentage control of (phytotoxicity on) Eleusine indica (ELEIN) (Eleusine indica (ELEIN); 14 DAA): 85% | percentage control of (phytotoxicity on) Setaria faberi (SETFA) (Setaria faberi (SETFA); 14 DAA): 90% | percentage control of (phytotoxicity on) Digitaria sanguinalis (DIGSA) ([1]; 14 DAA): 90% | percentage phytotoxicity on Glycine max cultivar TMG133 [2, 6]: 20% | percentage control of (phytotoxicity on) Brachiaria decumbens (BRADC) ([4]; 14 DAA): 50% | percentage control of (phytotoxicity on) Zea mays (ZEAMX, maize, corn) ([3]; 14 DAA): 10%

C#CCC1CC(=O)C(c2c(Cl)cc(-c3ccc(F)cc3)cc2OC)C1=O (stereo not drawn) [Compound A7]
percentage control of (phytotoxicity on) Eleusine indica (ELEIN) (Eleusine indica (ELEIN); 14 DAA): 91.7% | percentage control of (phytotoxicity on) Setaria faberi (SETFA) (Setaria faberi (SETFA); 14 DAA): 91.7% | percentage control of (phytotoxicity on) Digitaria sanguinalis (DIGSA) ([1]; 14 DAA): 95% | percentage phytotoxicity on Glycine max cultivar TMG133 [2, 6]: 0% | percentage control of (phytotoxicity on) Brachiaria decumbens (BRADC) ([4]; 14 DAA): 95% | percentage control of (phytotoxicity on) Zea mays (ZEAMX, maize, corn) ([3]; 14 DAA): 100%

C#CCC1CC(=O)C(c2c(F)cc(-c3ccc(F)cc3)cc2OC)C1=O (stereo not drawn) [Compound A20, 2-[2-fluoro-4-(4-fluorophenyl)-6-methoxyphenyl]-4-prop-2-ynylcyclopentane-1,3-dione]
percentage control of Eleusine indica (Eleusine indica (ELEIN); 14 or 15 DAA): 15% | percentage control of Setaria faberi (Setaria faberi (SETFA); 14 or 15 DAA): 90% | percentage control of Digitaria sanguinalis ([1]; 14 or 15 DAA): 75% | percentage phytotoxicity on Glycine max cultivar TMG133 [2, 5]: 10% | percentage control of Zea mays ([3]; 14 or 15 DAA): 90%

C#CCC1CC(=O)C(c2c(Cl)cc(-c3ccc(F)cc3F)cc2OC)C1=O (stereo not drawn) [Compound A12]
percentage control of Eleusine indica (Eleusine indica (ELEIN); 14 or 15 DAA): 90% | percentage control of Setaria faberi (Setaria faberi (SETFA); 14 or 15 DAA): 95% | percentage control of Digitaria sanguinalis ([1]; 14 or 15 DAA): 98.5% | percentage phytotoxicity on Glycine max cultivar TMG133 ([2]; 240 g/ha, 14 or 15 DAA, adjuvant 0.5% v/v TEHP + 1.0% v/v AMS + 12.5% v/v IPA): 15% | percentage control of Brachiaria decumbens (BRADC) ([4]; 14 or 15 DAA): 99% | percentage control of Zea mays ([3]; 14 or 15 DAA): 100%

C#CCC1CC(=O)C(c2c(Cl)cc(-c3ccc(Cl)cc3)cc2OC)C1=O (stereo not drawn) [Compound A11, 2-[2-chloro-4-(4-chlorophenyl)-6-methoxyphenyl]-4-prop-2-ynylcyclopentane-1,3-dione]
percentage control of Eleusine indica (Eleusine indica (ELEIN); 14 DAA): 95% | percentage control of Setaria faberi (Setaria faberi (SETFA); 14 DAA): 98% | percentage control of Digitaria sanguinalis ([1]; 14 DAA): 99% | percentage phytotoxicity on Glycine max cultivar TMG133 ([2]; 120 g/ha, 14 DAA, adjuvant 0.5% v/v TEHP + 1.0% v/v AMS + 12.5% v/v IPA): 12.5% | percentage control of Brachiaria decumbens (BRADC) ([4]; 14 DAA): 99% | percentage control of Zea mays ([3]; 14 DAA): 100%

— US10375956B2, “Herbicidally active 2-(substituted-phenyl)-cyclopentane-1,3-dione compounds and derivatives thereof” (Syngenta Limited, priority 2013, dated 2019)
